The values below come from patent publication US6461997B1, “Triazole sulfones having herbicidal activity” (Monsanto Technology LLC, priority 1999, dated 2002).

The test system of one assay is barley (HORVX). Description: Selectivity test, PPI, cool season crop. It counts as in vivo, Hordeunm vulgare. The note with it: PPI application. Here is the method: (§1) A pre-prepared topsoil mixture (described above) was placed in a pot and compacted to a depth of 1.0 to 1.25 cm from the top of the pot. Seeds of each of several monocotyledonous and dicotyledonous annual plant species were placed on top of the soil. A sufficient quantity of soil to cover the seeds and level fill the pot was weighed into an open container. A known amount of the test compound was dissolved or suspended in an organic solvent and applied by spraying to this cover soil. The cover soil was thoroughly mixed to distribute the test compound throughout the cover soil, and was then applied as a cover layer over the seeds. Untreated soil was used as a cover layer for control pots. After treatment the plants were placed in a greenhouse where they received 0.64 cm of overhead irrigation. All subsequent watering consisted of a light overhead mist and/or subirrigation as needed for germination and growth. Tables 9 and 10 below relate to warm season plant species which were placed after pre-emergence treatment in a greenhouse with a 30/21° C. day/night temperature regime. Tables 11 and 12 below relates to cool season plant species placed after pre-emergence treatment in a greenhouse or growth chamber with an 18/13° C. day/night temperature regime. Only the compounds of Examples 1, 6, 8, 11, 13 and 15-20 were included in PPI tests.
(§2) Approximately 14 days after planting and treating, the plants were observed and herbicidal efficacy recorded as percent inhibition by comparison with untreated plants.
(§3) Additional pre-emergence and PPI tests were conducted by the procedures described above, on warm and cool season weed species in the presence of crop species, to assess herbicidal selectivity. Crop species included in warm season tests were corn (Zea mays, ZEAMX), rice (Oryza sativa, ORYSA) and soybean (Glycine max, GLYMX). Crop species included in cool season tests were wheat (Triticum aestivum, TRZAW), barley (Hordeunm vulgare, HORVX) and oilseed rape (Brassica napus, BRSNS).
(§4) Tables 15 and 16 relate to pre-emergence and PPI tests respectively on warm season species. Table 17 relates to pre-emergence tests on cool season species.

Assay [1] deals with GALAP (catchweed bedstraw). Briefly: Pre-plant incorporated (PPI) herbicidal activity, cool season. It is filed as in vivo, Galium aparine. The note with it: for Percent inhibition GALAP: weed, PPI application. Here is the method: (§5) In another set of tests, the pre-plant incorporated (PPI) activity of compounds of this invention was evaluated on the same species as for the pre-emergence tests described above. In the PPI tests the following procedure, designed to simulate PPI application, was used.
as §1, §2

The subject of the next assay is POLCO (wild buckwheat). Briefly: Pre-emergence herbicidal activity, cool season. It is filed as in vivo, Polygonum convolvulus. As to conditions: lowest tested rate with 80% or greater inhibition; rates 300, 100, 30, 10 g/ha; about 14 days. An outline of the steps: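 Each pot received seeds on sterilized fertilized topsoil, a soil cover, and a surface spray of compound (300–10 g/ha, acetone/water 50:50). Plants grew about 14 days at 30/21 °C (PANMI, DIGSA) or 18/13 °C (ALOMY, POLCO) before inhibition was rated against untreated pots to give GR80.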

The next assay relates to oilseed rape (BRSNS). Description: Selectivity test, PPI, cool season crop. It is filed as in vivo, Brassica napus. The note with it: PPI application. The protocol: as §1, §2, §3, §4
The test system of another assay is AMARE (redroot pigweed). Briefly: Pre-plant incorporated (PPI) herbicidal activity, warm season. As to conditions: for Percent inhibition AMARE: PPI application. It is filed as in vivo, Amaranthus retroflexus. The protocol:
as §5, §1, §2

For the molecule `CCN(CC)C(=O)n1cnc(S(=O)(=O)C(F)(F)F)n1` [Example 2], the “Percent inhibition HORVX” value came out at 0% with barley (HORVX) (30 g/ha), 30% in the assay with barley (HORVX) (100 g/ha), 20% with barley (HORVX) (300 g/ha) and 100% with barley (HORVX) (900 g/ha). For the same molecule, the “Percent inhibition GALAP” value in assay [1] (30 g/ha) came out at 60%; in assay [1] (100 g/ha), 100%; in assay [1] (300 g/ha) it was 100%; in assay [1] (900 g/ha) it was 100%. In the assay with POLCO (wild buckwheat), the “Pre-emergence activity GR80, POLCO” value is “[empty]”. Further, the “Percent inhibition BRSNS” value in the assay with oilseed rape (BRSNS) (30 g/ha) stood at 0%; in the assay with oilseed rape (BRSNS) (100 g/ha) it was 80%; in the assay on oilseed rape (BRSNS) (300 g/ha), 100%; in the assay on oilseed rape (BRSNS) (900 g/ha) it was 100%. The “Percent inhibition AMARE” value in the assay with AMARE (redroot pigweed) (30 g/ha) stood at 100%; in the assay on AMARE (redroot pigweed) (100 g/ha) it was 95%; in the assay with AMARE (redroot pigweed) (300 g/ha), 100%; in the assay on AMARE (redroot pigweed) (900 g/ha), 100%.
With `CCN(CC)C(=O)n1cnc(S(=O)(=O)C(F)(F)Cl)n1` [Example 3], the “Percent inhibition HORVX” value in the assay with barley (HORVX) (30 g/ha) stood at 0%; with barley (HORVX) (100 g/ha), 0%; in the assay on barley (HORVX) (300 g/ha), 10%; in the assay with barley (HORVX) (900 g/ha), 80%. Also, the “Percent inhibition GALAP” value in assay [1] (30 g/ha), in assay [1] (100 g/ha), in assay [1] (300 g/ha) and in assay [1] (900 g/ha) was 100% in each case. Further, the “Pre-emergence activity GR80, POLCO” value in the assay with POLCO (wild buckwheat) was “[empty]”. Also, the “Percent inhibition BRSNS” value with oilseed rape (BRSNS) (30 g/ha), in the assay on oilseed rape (BRSNS) (100 g/ha), in the assay on oilseed rape (BRSNS) (300 g/ha) and with oilseed rape (BRSNS) (900 g/ha) was 100% throughout. In addition, the “Percent inhibition AMARE” value was 90% in the assay with AMARE (redroot pigweed) (30 g/ha), 100% with AMARE (redroot pigweed) (100 g/ha), 100% with AMARE (redroot pigweed) (300 g/ha) and 100% in the assay on AMARE (redroot pigweed) (900 g/ha).
With `CCN(CC)C(=O)n1cnc(S(=O)(=O)C(F)(F)C(F)(F)Br)n1` [Example 4], the “Percent inhibition HORVX” value in the assay on barley (HORVX) (30 g/ha) was determined as 0%; with barley (HORVX) (100 g/ha), 0%; with barley (HORVX) (300 g/ha), 50%; in the assay on barley (HORVX) (900 g/ha), 90%. For the same molecule, the “Percent inhibition GALAP” value in assay [1] (30 g/ha) turned out to be 75%; in assay [1] (100 g/ha), 100%; in assay [1] (300 g/ha), 100%; in assay [1] (900 g/ha), 100%. The “Pre-emergence activity GR80, POLCO” value with POLCO (wild buckwheat) is 300 g/ha. Besides, the “Percent inhibition BRSNS” value is reported as 80% in the assay on oilseed rape (BRSNS) (30 g/ha), 100% in the assay on oilseed rape (BRSNS) (100 g/ha), 100% in the assay with oilseed rape (BRSNS) (300 g/ha) and 100% in the assay on oilseed rape (BRSNS) (900 g/ha). Further, the “Percent inhibition AMARE” value in the assay on AMARE (redroot pigweed) (30 g/ha) is recorded as 70%; in the assay with AMARE (redroot pigweed) (100 g/ha) it was 100%; in the assay on AMARE (redroot pigweed) (300 g/ha), 100%; in the assay on AMARE (redroot pigweed) (900 g/ha), 100%.
Regarding `CCN(CC)C(=O)n1cnc(S(=O)(=O)C(F)(F)C(=O)c2ccccc2)n1` [Example 6], in assay [1] (pre-plant incorporated, lowest tested rate with 80% or greater inhibition, about 14 days), the “PPI activity GR80, GALAP” value came out at 100 g/ha. Also, the “Pre-emergence activity GR80, POLCO” value with POLCO (wild buckwheat) amounted to 300 g/ha. Also, in the assay on AMARE (redroot pigweed) (pre-plant incorporated, GR80 = lowest tested rate with 80% or greater inhibition, approx. 14 days after treating, 30/21° C.), the “PPI activity (GR80) AMARE” value amounted to 100 g/ha.
